Reference: article PMC10144058, “New Hybrid Scaffolds Based on 5-FU/Curcumin: Synthesis, Cytotoxic, Antiproliferative and Pro-Apoptotic Effect” (Pharmaceutics, 2023)
Read-outs that look alike come from different tables or passages of the source.

Assays:
SW480 cells = assay: Cell viability, sulforhodamine B (SRB) assay; assay type: cell-based; conditions: Homo sapiens
Procedure: (§1) SW480 (colon adenocarcinoma) and SW620 (derived metastatic) malignant cell lines, and the non-malignant lines HaCaT (human keratinocytes) and CHO-K1 (Chinese Hamster Ovary), were obtained from the European Collection of Authenticated Cell Cultures (ECACC, Porton Down, Salisbury, UK). The cells were maintained in Dulbecco’s Modified Eagle’s Medium (DMEM), supplemented with 10% equine serum previously inactivated at 56 °C, 1% penicillin/streptomycin, and 1% non-essential amino acids, and incubated at 37 °C in an atmosphere with 5% CO2. To carry out the experiments, the serum was diluted to 3% and additionally supplemented with […] insulin, […] transferrin, and 5 ng/mL selenium. Cells were used for experimentation when they reached 80–90% confluence, using a 1X trypsin enzymatic disintegration method. To avoid contamination by Mycoplasma spp., cell cultures were periodically analyzed by polymerase chain reaction (PCR).
(§2) Cell viability was evaluated with a sulforhodamine B (SRB) assay. This technique provides an index of protein contents in living and adherent cells, whose optical density can be related to cell concentration. Initially, 20,000 cells were seeded per well in 96-well culture plates. An initial adherence period of 24 h was performed at 37 °C, 5% CO2, and after this, the medium was replaced by another that contained the hybrid compounds in different concentrations. Then, the cells were left incubating for 24 and 48 h under the same conditions previously described. After the respective incubation times, the cells were fixed with trichloroacetic acid (50% v/v) for 1 h at 4 °C and stained with 0.4% (p/v) of SRB. Subsequently, washings with 1% acetic acid were carried out to eliminate possible nonspecific bindings, and after solubilization with 10 mM Tris-base, the absorbance was read at 492 nm in a microplate reader (Mindray MR-96A). All the experiments were carried out in triplicate.

HaCaT cells = assay: Cell viability, sulforhodamine B (SRB) assay, non-malignant cells; assay type: cell-based; conditions: Homo sapiens
Procedure: as §1, §2

CHO-K1 cells = assay: as above; assay type: cell-based, Chinese Hamster; conditions: Cricetulus griseus
Procedure: as §1, §2

SW620 cells [1] = assay: Cell viability, sulforhodamine B (SRB) assay; assay type: cell-based, human; conditions: Homo sapiens
Procedure: as §1, §2

SW620 cells [2] = test system: SW620 cells; parameters: method as in PMID 36297411; conditions: cited from earlier work

Row | Compound | IC50 (SW480 cells; SW480, 24 h) [µM] | IC50 (SW480 cells; SW480, 48 h) [µM] | IC50 (HaCaT cells; 24 h) [µM] | IC50 (HaCaT cells; 48 h) [µM] | IC50 (CHO-K1 cells; CHO-K1, 24 h) [µM] | IC50 (CHO-K1 cells; CHO-K1, 48 h) [µM] | melting point [°C] | IC50 (SW620 cells [1]; SW-620, 24 h, 24 h) [µM] | IC50 (SW620 cells [1]; SW-620, 48 h, 48 h) [µM] | IC50 (SW620 cells [2]) [µM]
1 | COc1cc(/C=C/C(=O)c2ccc(OCCCCn3cc(Cn4cc(F)c(=O)[nH]c4=O)nn3)cc2)ccc1O [Compound 6c, (E)-5-fluoro-1-((1-(4-(4-(3-(4-hydroxy-3-methoxyphenyl)acryloyl)phenoxy)butyl)-1H-1,2,3-triazol-4-yl)methyl)pyrimidine-2,4(1H,3H)-dione] | 30.4 ± 2.69 | 16.4 ± 0.97 | 45.4 ± 4.18 | 19.1 ± 1.68 | 26.3 ± 2.99 | 30.5 ± 2.18 | 61 to 65 | 83.9 ± 8.08 | 28.1 ± 1.85 | 
2 | COc1cc(/C=C/C(=O)c2ccc(OCCCCCCCCn3cc(Cn4cc(F)c(=O)[nH]c4=O)nn3)cc2)ccc1O [Compound 6f, (E)-5-fluoro-1-((1-(8-(4-(3-(4-hydroxy-3-methoxyphenyl)acryloyl)phenoxy)octyl)-1H-1,2,3-triazol-4-yl)methyl)pyrimidine-2,4(1H,3H)-dione] | > 100 | 29.7 ± 2.43 | > 100 | 35.1 ± 4.74 | > 100 | > 100 | 98 to 102 | > 100 | > 100 | 
3 | COc1cc(/C=C/C(=O)c2ccc(OCCCCCCCCCn3cc(Cn4cc(F)c(=O)[nH]c4=O)nn3)cc2)ccc1O [Compound 6g, (E)-5-fluoro-1-((1-(9-(4-(3-(4-hydroxy-3-methoxyphenyl)acryloyl)phenoxy)nonyl)-1H-1,2,3-triazol-4-yl)methyl)pyrimidine-2,4(1H,3H)-dione] | > 100 | > 100 | > 100 | > 100 | > 100 | > 100 | 113 to 120 | > 100 | > 100 | 
4 | COc1cc(/C=C/C(=O)c2ccc(OCCCCCCCCCCCCn3cc(Cn4cc(F)c(=O)[nH]c4=O)nn3)cc2)ccc1O [Compound 6h, (E)-5-fluoro-1-((1-(12-(4-(3-(4-hydroxy-3-methoxyphenyl)acryloyl)phenoxy)dodecyl)-1H-1,2,3-triazol-4-yl)methyl)pyrimidine-2,4(1H,3H)-dione] | > 100 | > 100 | > 100 | > 100 | > 100 | > 100 | 129 to 135 | > 100 | > 100 | 
5 | COc1cc(/C=C/C(=O)CC(=O)/C=C/c2ccc(O)c(OC)c2)ccc1O [Curcumin, curcumin] | 84.6 ± 6.6 | 90.4 ± 1 | > 100 | 28.8 ± 2.33 | 20.2 ± 2.41 | 36.3 ± 4.17 |  | 164 ± 5.88 | 22.2 ± 2.37 | 
6 | O=c1[nH]c(=O)n(Cc2cn(CCCCCCCCCOc3cc(O)c4c(=O)c(-c5ccc(O)cc5)coc4c3)nn2)cc1F [F] |  |  |  |  |  |  |  |  |  | 36.8 ± 0.71
